According to the NIST ThermoML archive (doi:10.1021/je500886a):

Test: mn = molality of the nth substance listed, in mol/kg
Details: 101 kPa, Liquid

OC[C@@H](O)C(O)[C@H](O)CO [D-arabitol] + O
Details	mass density, 288.15 K [kg/m3]	mass density, 298.15 K [kg/m3]	mass density, 308.15 K [kg/m3]	mass density, 318.15 K [kg/m3]	viscosity, 288.15 K [mPa·s]	viscosity, 298.15 K [mPa·s]	viscosity, 308.15 K [mPa·s]	viscosity, 318.15 K [mPa·s]
m1 = 0.05025	–	–	–	–	1.162	0.906	0.73	0.604
m1 = 0.0542	1001.87	999.73	996.7	992.83	–	–	–	–
m1 = 0.06886	–	–	–	–	1.172	0.913	0.735	0.608
m1 = 0.07304	1002.82	1000.65	997.61	993.72	–	–	–	–
m1 = 0.08867	1003.59	1001.41	998.35	994.45	–	–	–	–
m1 = 0.09155	–	–	–	–	1.183	0.92	0.74	0.611
m1 = 0.1053	1004.4	1002.21	999.14	995.22	–	–	–	–
m1 = 0.1061	–	–	–	–	1.189	0.925	0.744	0.613
m1 = 0.1258	–	–	–	–	1.198	0.931	0.748	0.617
m1 = 0.1323	1005.72	1003.5	1000.41	996.46	–	–	–	–
m1 = 0.1507	–	–	–	–	1.209	0.94	0.754	0.621
m1 = 0.1512	1006.64	1004.39	1001.3	997.33	–	–	–	–

OC[C@@H](O)[C@H](O)[C@H](O)[C@@H](O)CO [dulcitol] + O
Details	mass density, 288.15 K [kg/m3]	mass density, 298.15 K [kg/m3]	mass density, 308.15 K [kg/m3]	mass density, 318.15 K [kg/m3]	viscosity, 288.15 K [mPa·s]	viscosity, 298.15 K [mPa·s]	viscosity, 308.15 K [mPa·s]	viscosity, 318.15 K [mPa·s]
m1 = 0.0503	–	–	–	–	1.164	0.909	0.732	0.605
m1 = 0.05086	1002.35	1000.21	997.18	993.33	–	–	–	–
m1 = 0.07104	–	–	–	–	1.175	0.916	0.737	0.609
m1 = 0.0735	1003.75	1001.6	998.55	994.68	–	–	–	–
m1 = 0.08768	1004.62	1002.46	999.39	995.51	–	–	–	–
m1 = 0.08872	–	–	–	–	1.185	0.921	0.743	0.612
m1 = 0.1066	1005.78	1003.6	1000.52	996.63	–	–	–	–
m1 = 0.1091	–	–	–	–	1.196	0.928	0.747	0.616
m1 = 0.1279	1007.07	1004.88	1001.77	997.86	–	–	–	–
m1 = 0.1283	–	–	–	–	1.204	0.935	0.752	0.619
m1 = 0.1457	1008.14	1005.94	1002.81	998.89	–	–	–	–
m1 = 0.1468	–	–	–	–	1.215	0.941	0.757	0.622

O=C[C@@H](O)[C@H](O)[C@H](O)CO [D-(-)-arabinose] + O
Details	mass density, 288.15 K [kg/m3]	mass density, 298.15 K [kg/m3]	mass density, 308.15 K [kg/m3]	mass density, 318.15 K [kg/m3]	viscosity, 288.15 K [mPa·s]	viscosity, 298.15 K [mPa·s]	viscosity, 308.15 K [mPa·s]	viscosity, 318.15 K [mPa·s]
m1 = 0.05173	1002.09	999.97	996.94	993.08	–	–	–	–
m1 = 0.05178	–	–	–	–	1.157	0.905	0.73	0.604
m1 = 0.0695	–	–	–	–	1.164	0.909	0.734	0.608
m1 = 0.07102	1003.18	1001.05	998	994.13	–	–	–	–
m1 = 0.08979	–	–	–	–	1.17	0.915	0.738	0.611
m1 = 0.09055	1004.28	1002.13	999.06	995.18	–	–	–	–
m1 = 0.1077	–	–	–	–	1.177	0.92	0.741	0.614
m1 = 0.1093	1005.32	1003.17	1000.07	996.18	–	–	–	–
m1 = 0.1244	1006.17	1004	1000.88	996.98	–	–	–	–
m1 = 0.1267	–	–	–	–	1.182	0.925	0.745	0.616
m1 = 0.1476	1007.45	1005.26	1002.12	998.21	–	–	–	–
m1 = 0.151	–	–	–	–	1.191	0.932	0.75	0.621

OC[C@H]1O[C@@](CO)(O[C@H]2O[C@H](CO)[C@@H](O)[C@H](O)[C@H]2O)[C@@H](O)[C@@H]1O [D-sucrose] + O
Details	mass density, 288.15 K [kg/m3]	mass density, 298.15 K [kg/m3]	mass density, 308.15 K [kg/m3]	mass density, 318.15 K [kg/m3]	viscosity, 288.15 K [mPa·s]	viscosity, 298.15 K [mPa·s]	viscosity, 308.15 K [mPa·s]	viscosity, 318.15 K [mPa·s]
m1 = 0.0482	1005.4	1003.28	1000.26	996.41	–	–	–	–
m1 = 0.05054	–	–	–	–	1.198	0.934	0.751	0.621
m1 = 0.06821	1007.96	1005.82	1002.79	998.92	–	–	–	–
m1 = 0.06969	–	–	–	–	1.221	0.951	0.766	0.632
m1 = 0.08888	1010.58	1008.42	1005.37	1001.49	–	–	–	–
m1 = 0.09107	–	–	–	–	1.242	0.969	0.78	0.645
m1 = 0.1095	1013.17	1010.99	1007.92	1004.02	–	–	–	–
m1 = 0.1098	–	–	–	–	1.264	0.984	0.793	0.654
m1 = 0.1286	1015.55	1013.35	1010.27	1006.35	–	–	–	–
m1 = 0.1293	–	–	–	–	1.286	1.001	0.805	0.666
m1 = 0.1495	1018.13	1015.9	1012.8	1008.87	–	–	–	–
m1 = 0.1497	–	–	–	–	1.31	1.019	0.819	0.675

[Br-].[NH4+] [ammonium bromide] + O
Details	mass density, 288.15 K [kg/m3]	mass density, 298.15 K [kg/m3]	mass density, 308.15 K [kg/m3]	mass density, 318.15 K [kg/m3]	viscosity, 288.15 K [mPa·s]	viscosity, 298.15 K [mPa·s]	viscosity, 308.15 K [mPa·s]	viscosity, 318.15 K [mPa·s]
m1 = 0.05	1001.05	998.76	995.75	992.91	1.132	0.888	0.719	0.597
m1 = 0.5	1024.05	1021.81	1019.06	1015.68	1.096	0.87	0.71	0.598
m1 = 1	1049.01	1046.88	1043.31	1040.33	1.057	0.853	0.697	0.6
m1 = 2	1095.99	1092.56	1088.78	1085.68	1.002	0.827	0.678	0.602

O=C[C@H](O)[C@@H](O)[C@@H](O)[C@H](O)CO [(+)-galactose] + O
Details	mass density [kg/m3]	viscosity [mPa·s]
288.15 K, m1 = 0.05001	–	1.166
288.15 K, m1 = 0.05096	1002.7	–
288.15 K, m1 = 0.06903	1003.95	–
288.15 K, m1 = 0.07068	–	1.178
288.15 K, m1 = 0.09042	1005.42	–
288.15 K, m1 = 0.09059	–	1.189
288.15 K, m1 = 0.1099	–	1.199
288.15 K, m1 = 0.1289	–	1.208
288.15 K, m1 = 0.1513	–	1.22
288.15 K, m1 = 0.1552	1009.81	–
298.15 K, m1 = 0.05001	–	0.91
298.15 K, m1 = 0.05096	1000.58	–
298.15 K, m1 = 0.06903	1001.82	–
298.15 K, m1 = 0.07068	–	0.919
298.15 K, m1 = 0.09042	1003.27	–
298.15 K, m1 = 0.09059	–	0.927
298.15 K, m1 = 0.1099	–	0.935
298.15 K, m1 = 0.1102	1004.61	–
298.15 K, m1 = 0.1289	–	0.941
298.15 K, m1 = 0.1322	1006.08	–
298.15 K, m1 = 0.1513	–	0.951
308.15 K, m1 = 0.05001	–	0.734
308.15 K, m1 = 0.05096	997.56	–
308.15 K, m1 = 0.06903	998.79	–
308.15 K, m1 = 0.07068	–	0.741
308.15 K, m1 = 0.09042	1000.22	–
308.15 K, m1 = 0.09059	–	0.747
308.15 K, m1 = 0.1099	–	0.753
308.15 K, m1 = 0.1102	1001.54	–
308.15 K, m1 = 0.1289	–	0.758
308.15 K, m1 = 0.1322	1003	–
308.15 K, m1 = 0.1513	–	0.766
308.15 K, m1 = 0.1552	1004.51	–
318.15 K, m1 = 0.05001	–	0.607
318.15 K, m1 = 0.05096	993.7	–
318.15 K, m1 = 0.06903	994.91	–
318.15 K, m1 = 0.07068	–	0.612
318.15 K, m1 = 0.09042	996.33	–
318.15 K, m1 = 0.09059	–	0.617
318.15 K, m1 = 0.1099	–	0.621
318.15 K, m1 = 0.1102	997.64	–
318.15 K, m1 = 0.1289	–	0.625
318.15 K, m1 = 0.1322	999.07	–
318.15 K, m1 = 0.1513	–	0.63
318.15 K, m1 = 0.1552	1000.57	–

OC[C@@H](O)[C@@H](O)[C@H](O)[C@@H](O)CO [D-sorbitol] + O
Details	mass density, 288.15 K [kg/m3]	mass density, 298.15 K [kg/m3]	mass density, 308.15 K [kg/m3]	mass density, 318.15 K [kg/m3]	viscosity, 288.15 K [mPa·s]	viscosity, 298.15 K [mPa·s]	viscosity, 308.15 K [mPa·s]	viscosity, 318.15 K [mPa·s]
m1 = 0.0479	–	–	–	–	1.169	0.914	0.736	0.609
m1 = 0.05068	1002.38	1000.23	997.2	993.33	–	–	–	–
m1 = 0.06467	–	–	–	–	1.183	0.921	0.742	0.614
m1 = 0.07063	1003.63	1001.46	998.41	994.53	–	–	–	–
m1 = 0.08656	–	–	–	–	1.197	0.932	0.75	0.62
m1 = 0.09024	1004.83	1002.65	999.59	995.7	–	–	–	–
m1 = 0.1057	1005.77	1003.58	1000.51	996.61	–	–	–	–
m1 = 0.106	–	–	–	–	1.21	0.942	0.756	0.624
m1 = 0.1249	–	–	–	–	1.226	0.951	0.765	0.631
m1 = 0.13	1007.24	1005.03	1001.95	998.04	–	–	–	–
m1 = 0.1451	–	–	–	–	1.239	0.959	0.772	0.635
m1 = 0.1465	1008.23	1006.01	1002.93	999	–	–	–	–
